Source: ChEMBL document CHEMBL6127144, “Optimization of a Piperidine CD4-Mimetic Scaffold Sensitizing HIV-1 Infected Cells to Antibody-Dependent Cellular Cytotoxicity” (ACS Med Chem Lett, 2024)
The source made the active and inactive calls. No cut-off for these calls is given here.

Assays:
CD4+ T cell [1] = assay: Binding affinity to 17b Antibody in HIV-1 AD8 infected human primary CD4+ T cell co-cultured with KHYG-1 cells assessed as antibody driven cell cytotoxicity at 50 uM incubated for 4 to 6 hrs by Alexa Fluor 647 staining based flow cytometric analysis; conditions: time 4-6 hrs
CD4+ T cell [2] = assay: Binding affinity to 17b Antibody in HIV-1 JRFL infected human primary CD4+ T cell by measuring median fluorescence intensity at 50 uM incubated for 48 hrs by Alexa Fluor 647 staining based flow cytometric analysis
CD4+ T cell [3] = assay: Binding affinity to 17b Antibody in HIV-1 AD8 infected human primary CD4+ T cell by measuring median fluorescence intensity at 50 uM incubated for 48 hrs by Alexa Fluor 647 staining based flow cytometric analysis
[4] = tested on: Human immunodeficiency virus 1; assay: Antiviral activity against HIV-1 AD8 infected in human TZM-bl cells assessed as inhibition of viral growth incubated for 48 hrs by luminometer based neutralization assay; format: functional, organism-based; conditions: Human immunodeficiency virus 1, AD8, TZM-bl
[5] = tested on: Human immunodeficiency virus 1; assay: Antiviral activity against HIV-1 JRFL infected in human TZM-bl cells assessed as inhibition of viral growth incubated for 48 hrs by luminometer based neutralization assay; format: functional, organism-based; conditions: Human immunodeficiency virus 1, JRFL
[6] = tested on: Human immunodeficiency virus 1; assay: Antiviral activity against HIV-1 CH58TF infected in human primary CD4+ T cell co-cultured with KHYG-1 cells assessed as inhibition of viral growth at 50 uM incubated for 4 to 6 hrs in presence of HIV+ plasma by flow cytometric analysis; format: functional, organism-based; conditions: time 4-6 hrs
CD4+ T cell [7] = assay: Binding affinity to 17b Antibody in HIV-1 JRFL infected human primary CD4+ T cell co-cultured with KHYG-1 cells assessed as antibody driven cell cytotoxicity at 50 uM incubated for 4 to 6 hrs by Alexa Fluor 647 staining based flow cytometric analysis; conditions: time 4-6 hrs
[8] = tested on: Moloney murine leukemia virus; assay: Antiviral activity against Moloney murine leukemia virus infected in human TZM-bl cells assessed as inhibition of viral growth incubated for 48 hrs by luminometer based neutralization assay; format: functional, organism-based
[9] = tested on: Human immunodeficiency virus 1; assay: Antiviral activity against HIV-1 CH58TF infected in human TZM-bl cells assessed as inhibition of viral growth incubated for 48 hrs by luminometer based neutralization assay; format: functional, organism-based; conditions: Human immunodeficiency virus 1, CH58TF
[10] = tested on: Human immunodeficiency virus 1; assay: Antiviral activity against HIV-1 AD8 infected in human primary CD4+ T cell co-cultured with KHYG-1 cells assessed as inhibition of viral growth at 50 uM incubated for 4 to 6 hrs in presence of HIV+ plasma by flow cytometric analysis; format: functional, organism-based; conditions: time 4-6 hrs
CD4+ T cell [11] = assay: Binding affinity to 17b Antibody in HIV-1 CH58TF infected human primary CD4+ T cell co-cultured with KHYG-1 cells assessed as antibody driven cell cytotoxicity at 50 uM incubated for 4 to 6 hrs by Alexa Fluor 647 staining based flow cytometric analysis; conditions: time 4-6 hrs
TZM = assay: Cytotoxicity against human TZM-bl cells upto 100 uM incubated for 48 hrs by cell-titer glo luminescent assay; format: toxicity, cell-based
[12] = tested on: Human immunodeficiency virus 1; assay: Antiviral activity against HIV-1 JRFL infected in human primary CD4+ T cell co-cultured with KHYG-1 cells assessed as inhibition of viral growth at 50 uM incubated for 4 to 6 hrs in presence of HIV+ plasma by flow cytometric analysis; format: functional, organism-based; conditions: time 4-6 hrs
CD4+ T cell [13] = assay: Binding affinity to 17b Antibody in HIV-1 JRFL infected human primary CD4+ T cell at 50 uM incubated for 48 hrs by Alexa Fluor 647 staining based flow cytometric analysis
CD4+ T cell [14] = assay: Binding affinity to 17b Antibody in HIV-1 AD8 infected human primary CD4+ T cell at 50 uM incubated for 48 hrs by Alexa Fluor 647 staining based flow cytometric analysis

Row | Structure (SMILES) | Flu intensity (CD4+ T cell [2]) | Flu intensity (CD4+ T cell [3]) | IC50 [4] [µM] | IC50 [5] [µM] | other results
1 | CC(=O)NCSC[C@H](N)C(=O)N1CCN(C(=O)N2CCC[C@H](C(=O)Nc3ccc(Cl)c(F)c3)C2)CC1 | 1.55 | 1.75 | 1.86 | 40 | Activity (CD4+ T cell [1]): Active
2 | N=C(N)N1CCC[C@@H]1C(=O)N1CCN(C(=O)N2CCC[C@H](C(=O)Nc3ccc(Cl)c(F)c3)C2)CC1 | – | – | 2.92 | 8.28 | Activity [6]: Active; Activity (CD4+ T cell [7]): Active; IC50 [8]: > 100 µM; Activity (CD4+ T cell [1]): Active; IC50 [9]: 0.14 µM; Activity [10]: Active; Activity (CD4+ T cell [11]): Active; Activity (TZM): Non-Toxic; Activity [12]: inactive
3 | O=C(Nc1ccc(Cl)c(F)c1)[C@H]1CCCN(C(=O)N2CCOCC2)C1 | 1.05 | 1.49 | – | – | –
4 | N=C(N)N1CCC[C@@H]1C(=O)N1CCN(C(=O)N2C[C@H](CO)C[C@H](C(=O)Nc3ccc(Cl)c(F)c3)C2)CC1 | – | – | > 100 | – | –
5 | CN(C)CCCN1CCN(C(=O)N2CCC[C@H](C(=O)Nc3ccc(Cl)c(F)c3)C2)CC1 | 1.42 | 1.39 | – | – | –
6 | N[C@@H](Cc1ccc(O)cc1)C(=O)N1CCN(C(=O)N2CCC[C@H](C(=O)Nc3ccc(Cl)c(F)c3)C2)CC1 | 2.19 | 2.48 | 2.18 | 28 | –
7 | O=C(Nc1ccc(Cl)c(F)c1)[C@H]1CCCN(C(=O)N2CCN(c3ccccn3)CC2)C1 | – | – | – | – | Activity (CD4+ T cell [13]): inactive; Activity (CD4+ T cell [14]): inactive
8 | COCCN1CCN(C(=O)N2CCC[C@H](C(=O)Nc3ccc(Cl)c(F)c3)C2)CC1 | 1.43 | 1.28 | – | – | –
9 | N=C(N)NCCC[C@H](N)C(=O)N1CCN(C(=O)N2CCC[C@H](C(=O)Nc3ccc(Cl)c(F)c3)C2)CC1 | 1.61 | 2.23 | 1.27 | ≥ 72.6 | Activity [6]: Active; IC50 [8]: > 100 µM; Activity (CD4+ T cell [1]): Active; IC50 [9]: 0.22 µM; Activity (CD4+ T cell [11]): Active; Activity (TZM): Non-Toxic
10 | N=C(N)NCC(=O)N1CCN(C(=O)N2CCC[C@H](C(=O)Nc3ccc(Cl)c(F)c3)C2)CC1 | – | – | 1.99 | 10.7 | Activity [6]: Active; Activity (CD4+ T cell [7]): Active; IC50 [8]: > 100 µM; Activity (CD4+ T cell [1]): Active; IC50 [9]: 0.15 µM; Activity (CD4+ T cell [11]): Active; Activity (TZM): Non-Toxic; Activity [12]: inactive
11 | O=C(Nc1ccc(Cl)c(F)c1)[C@H]1CCCN(C(=O)N2CCN(c3ccccc3)CC2)C1 | – | – | – | – | Activity (CD4+ T cell [13]): inactive; Activity (CD4+ T cell [14]): inactive
12 | NC(=O)C[C@H](N)C(=O)N1CCN(C(=O)N2CCC[C@H](C(=O)Nc3ccc(Cl)c(F)c3)C2)CC1 | 1.53 | 2.14 | 6.21 | 24.6 | –
13 | O=C(Nc1ccc(Cl)c(F)c1)[C@H]1CCCN(C(=O)c2c[nH]cn2)C1 | 0.93 | 1.07 | – | – | –
14 | O=C(Nc1ccc(Cl)c(F)c1)[C@H]1CCCN(C(=O)N2CCC[C@H]2CO)C1 | 1.11 | 1.26 | – | – | –
15 | NCCNC(=O)N1CCC[C@H](C(=O)Nc2ccc(Cl)c(F)c2)C1 | – | – | > 100 | > 100 | Activity [6]: Active; IC50 [8]: > 100 µM; Activity (CD4+ T cell [1]): inactive; IC50 [9]: 1.77 µM; Activity [10]: inactive; Activity (CD4+ T cell [11]): Active
16 | O=C(Nc1ccc(Cl)c(F)c1)[C@H]1CCCN(C(=O)N2CCN(c3cccc(C(F)(F)F)c3)CC2)C1 | – | – | – | – | Activity (CD4+ T cell [13]): inactive; Activity (CD4+ T cell [14]): inactive
17 | CN1CCN(C(=O)N2CCC[C@H](C(=O)Nc3ccc(Cl)c(F)c3)C2)CC1 | 1.14 | 1.5 | – | – | –
18 | C[C@H](N)C(=O)N1CCN(C(=O)N2CCC[C@H](C(=O)Nc3ccc(Cl)c(F)c3)C2)CC1 | 2.02 | 2.53 | 1.83 | 5.62 | –
19 | O=C(Nc1ccc(Cl)c(F)c1)[C@H]1CCCN(C(=O)N2CCN(c3ncccn3)CC2)C1 | – | – | – | – | Activity (CD4+ T cell [13]): inactive; Activity (CD4+ T cell [14]): inactive
20 | O=C(Nc1ccc(Cl)c(F)c1)[C@H]1CCCN(C(=O)N2CCCCC2)C1 | 0.96 | 1.19 | – | – | –
21 | N=C(N)NCC(=O)N1CCN(C(=O)N2C[C@H](CO)C[C@H](C(=O)Nc3ccc(Cl)c(F)c3)C2)CC1 | – | – | 38.6 | – | –
22 | O=C(Nc1ccc(Cl)c(F)c1)[C@H]1CCCN(C(=O)c2ccncc2)C1 | 0.95 | 1.25 | – | – | –
23 | CNCc1ccc2c(c1)C[C@H](CNC(=N)N)[C@H]2NC(=O)C(=O)Nc1ccc(Cl)c(F)c1 | – | – | 0.95 | 4.6 | Activity [6]: Active; IC50 [8]: > 100 µM; IC50 [9]: 0.07 µM; Activity (CD4+ T cell [11]): Active
24 | O=C(Nc1ccc(Cl)c(F)c1)[C@H]1CCCN(C(=O)N(CCO)CCO)C1 | 1.04 | 1.27 | – | – | –
25 | C[C@@H](O)[C@H](N)C(=O)N1CCN(C(=O)N2CCC[C@H](C(=O)Nc3ccc(Cl)c(F)c3)C2)CC1 | inactive | inactive | 1.55 | 13.7 | –
26 | CCN1CCN(C(=O)N2CCC[C@H](C(=O)Nc3ccc(Cl)c(F)c3)C2)CC1 | 1.36 | 1.23 | – | – | –
27 | NC(=O)[C@@H]1CCCN1C(=O)N1CCC[C@H](C(=O)Nc2ccc(Cl)c(F)c2)C1 | 1.01 | 1.23 | – | – | –
28 | O=C(Nc1ccc(Cl)c(F)c1)[C@H]1CCCN(C(=O)N2CCN(CC(=O)N3CCCC3)CC2)C1 | 1.3 | 1.52 | – | – | –
